Here are results for 4 compounds from patent US20230113802A1, “COMPOSITION AND METHOD TO PREPARE LONG-ACTING INJECTABLE SUSPENSION CONTAINING MULTIPLE CANCER DRUGS” (University of Washington, priority 2020, published 2023).

The nature of data set [1]: Pharmacokinetic study of GT DcNP vs CrEL drug combination in mice (Example 1). The format is in vivo, BALB/c mice. As to conditions: GT 50/5 mg/kg IV; for AUC(0-t) / Cmax / t1/2apparent: plasma; for AUC(0-t): iv. As for the experimental part: Mice were administered with either a CrEL drug combination or GT DcNP intravenously with doses of 50/5 mg/kg GT. […] Each group had three animals and each animal was bled once only. Retro-orbital blood collection in this study was a terminal procedure and animals were under anesthesia at the time of bleeding. After blood collection, mice were euthanized by CO2 overdose followed by cervical dislocation as the secondary method of euthanasia. Drugs in plasma were extracted and analyzed by LC-MS/MS as described below.
A liquid-liquid extraction was used to extract drugs from plasma or tissue homogenates. […] Samples were spiked by internal standards (see below) followed by the addition of acetonitrile. […] The dried samples were reconstituted in 20% methanol and 80% water in 50 μL.
Drugs were quantified by a Shimadzu HPLC system coupled to a 3200 QTRAP mass spectrometer (Applied Biosystems, Grand Island, N.Y.). The HPLC system consisted of two Shimadzu LC-20A pumps, a DGU-20A5 degasser, and a Shimadzu SIL-20AC HT autosampler. The mass spectrometer was equipped with an electrospray ionization (ESI) TurbolonSpray source. The system was operated with Analyst software, version 1.5.2 (ABSciex, Framingham, Mass.).
Chromatographic separation of drugs was achieved using a Synergi column (100×2.0 mm; 4-μm particle size) with an inline C8 guard column (4.0×2.0 mm) (Phenomenex, Torrance, Calif.). An ammonium acetate buffer/reagent alcohol gradient was used to separate components. Analytes were monitored using multiple-reaction monitoring for positive ions.

The nature of data set [2]: GT localization in healthy versus 4T1 tumor bearing lung tissue. The format is in vivo, BALB/c mice. As to conditions: for concentration at 1 h / concentration at 24 h / Kp at 1 h / Kp at 24 h: female, BALB/c, mouse, intravenous; for concentration at 24 h / Kp at 24 h: 24 hours after DcNP; for Kp at 1 h / Kp at 24 h: lung/plasma, read-out: Lung/Plasma Ratio. As for the experimental part:
Female BALB/c mice were injected with 2×10^5 4 T1 metastatic breast cancer cells that express luciferase as a marker intravenously by tail vein on day 0. Stable expression of luciferase in these cells allows for bioluminescent monitoring of tumor growth and metastasis. Over a 14-day period, mouse behavior and health conditions were monitored daily and body weight measurements were taken every 2 days. […] The bioluminescence imaging was acquired through a XENOGEN IVIS 200 imaging system (PerkinElmer, Waltham, Mass.). The bioluminescence imaging parameters for live mice were set as follows: field of view, 24; excitation filter, closed; emission filter, open; exposure time, 180 sec; binning factor, 4; f/stop, 2. Bioluminescence intensity from mice were integrated using Live Image software (PerkinElmer, Waltham, Mass.). Mice were then intravenously administered GT in DcNPs at a dose of 50 mg/kg G and 5 mg/kg T or the same dose of drug in control suspension (CrEL) and sacrificed at fixed time points.
To determine whether DcNPs enhance GT distribution into target tissues, namely cancer nodules, the differential localization of GT in DcNP or CrEL form in healthy versus cancer nodule bearing mice was investigated. Since lungs are a common metastatic site for breast cancer disease progression, a model for metastasis that forms cancer nodules in the lungs was used. Cancer nodules were established in female BALB/c mice via intravenous inoculation of syngeneic breast cancer cells (4T1). […] Once nodules were established and confirmed with IVIS imaging, mice were administered with GT in either DcNP or conventionally solubilized form at equivalent doses (50/5 mg/kg, GT) and euthanized at pre-determined time intervals. Nodule-free and nodule-bearing lungs were harvested, and lung tissue drug concentrations were compared in these two groups.

The subject of the next data set is MOLT-4 cells. In words: AlamarBlue cell growth inhibition, MOLT-4. Format: cell-based. As to conditions: Homo sapiens, 120 h; for IC50: MOLT-4, five days, read-out: IC50 (sensitivity); for EC50: Molt-4 (Bcl-2 +, BTK −), 5 days, read-out: Inhibitory effects (EC50). The procedure:
K-562 cells (human leukemia) were purchased from ATCC (Manassas, USA). Additional human leukemic cell lines, MOLT-4 and HL-60, were a generous gift from Carrie Cummings at Fred Hutchinson Cancer Research Center (Seattle, USA). All cells were cultured in Gibco RPMI medium 1640 with Gibco 1% 100×Antibiotic-Antimycotic (Thermo Fisher Scientific, Waltham, USA) and 10% fetal bovine serum. Cells were selected for their different protein expression levels of Bruton's Tyrosine Kinase (BTK) and B Cell Lymphoma 2 (Bcl-2); HL-60 cells express both BTK and Bcl-2, while K-562 and MOLT-4 cells only express BTK and Bcl-2, respectively.
Each cell line was seeded separately into Costar® Black 96-well Assay Plates (Corning USA). Within 1 hr, varying concentrations of individual free drug (ABT-199 or BGB-3111), a combination of both free drugs (w/w 1:1), or a combination of drugs within DcNP's were added to the cells. Following a 5-day incubation, growth of treated cells was compared to untreated cells, quantified using an AlamarBlue Cell Viability Assay (Thermo Fisher Scientific, Waltham, USA) with a PerkinElmer 1420 Multilabel Counter plate reader. Prism graphing software (GraphPad) was used to analyze the absorbance data and to assess relative cell growth.
The effects of DcNP formulation on the effectiveness of ABT-199 and BGB-3111 to inhibit cells that express Bcl-2 and BTK targets is shown in Table 6. Three immortalized human cell lines were selected based on their expression of Bcl-2 (B-cell lymphoma 2; target of venetoclax) and BTK (Bruton's tyrosine kinase; target of zanubrutinib). Cell lines were seeded in 96-well plates at 75,000 cells per well. In separate sets of wells, venetoclax and zanubrutinib were incubated with the cells for 5 days individually as free drug, together as free drug, and together as the drug combination nanoformulation. An AlamarBlue assay was performed to determine relative inhibition of cell growth due to drug presence.

The conditions of data set [3]: cited from earlier work.
The mark [4] stands for this setting: female, BALB/c, mouse, given in CrEL drug dosage form.
The mark [5] stands for this setting: female, BALB/c, mouse, given in DcNP dosage form.
Setting [6] is: lung, 1 hour after DcNP, 4T1 tumor bearing mice, read-out: Lung.
The mark [7] stands for this setting: lung, 1 hour after DcNP, Healthy mice, 50/5 mg/kg GT IV, read-out: Lung.
Setting [8] is: lung, 1 hour after control (CrEL), 4T1 tumor bearing mice, 50/5 mg/kg GT IV, read-out: Lung.
[9] abbreviates: lung, 1 hour after control (CrEL), Healthy mice, 50/5 mg/kg GT IV, geometric mean ± SD, read-out: Lung.
The mark [10] stands for this setting: lung, 4T1 tumor bearing mice, read-out: Lung.
The mark [11] stands for this setting: lung, Healthy mice, read-out: Lung.
[12] abbreviates: 1 hour after DcNP, 4T1 tumor bearing mice.
The mark [13] stands for this setting: 1 hour after DcNP, Healthy mice.
Setting [14] is: 1 hour after control (CrEL), 4T1 tumor bearing mice.
Setting [15] is: 1 hour after control (CrEL), Healthy mice.
[16] abbreviates: plasma, 1 hour after DcNP, 4T1 tumor bearing mice, read-out: Plasma.
Where [17] appears, read: plasma, 1 hour after DcNP, Healthy mice, read-out: Plasma.
The mark [18] stands for this setting: plasma, 1 hour after control (CrEL), 4T1 tumor bearing mice, read-out: Plasma.
[19] abbreviates: plasma, 1 hour after control (CrEL), Healthy mice, read-out: Plasma.

Read-outs that look alike come from different tables or passages of the source. Marks after values point to notes of the source that are not given here.

Turning to `Nc1ccn([C@@H]2O[C@H](CO)[C@@H](O)C2(F)F)c(=O)n1` [Gemcitabine, 4-amino-1-[(2R,4R,5R)-3,3-difluoro-4-hydroxy-5-(hydroxymethyl)oxolan-2-yl]pyrimidin-2-one], in data set [1], the “increase in Cmax, GT DcNP compared to CrEL” value was roughly 10%. In addition, the AUC(0-t) in data set [1] (setting [4]) was 15300 ng·h/mL; in data set [1] (setting [5]), 868000 ng·h/mL. Further, the highest concentration (Cmax) was 165.12^b μg/mL in data set [1] (given in CrEL drug dosage form) and 181.4 µg/mL in data set [1] (given in DcNP dosage form). Further, the results for the t1/2apparent in data set [1] (given in CrEL drug dosage form) and in data set [1] (given in DcNP dosage form) were 1.60 h and 13.72 h, respectively. Besides, the “lung-to-plasma ratio, cancer nodule bearing mice times greater than healthy” value in data set [2] (24 hours after GT DcNP) worked out at 5 times. Besides, the concentration at 1 h in data set [2] (setting [6]) is 12500 ± 4900 ng/g; in data set [2] (setting [7]), 7500 ± 1200 ng/g; in data set [2] (setting [8]), 6000 ± 800 ng/g; in data set [2] (setting [9]) it was 900 ± 400 ng/g; in data set [2] (setting [16]), 72600 ± 60000 ng/mL; in data set [2] (setting [17]), 52200 ± 64000 ng/mL. Also, the concentration at 1 h came to 2800 ± 1400 ng/mL in data set [2] (setting [18]) and 900 ± 200 ng/mL in data set [2] (setting [19]). Moreover, the concentration at 24 h in data set [2] (setting [10]) was 3500 ± 1000 ng/g; in data set [2] (setting [11]), 300 ± 100 ng/g; in data set [2] (plasma, 4T1 tumor bearing mice, read-out: Plasma), 34200 ± 600 ng/mL; in data set [2] (plasma, Healthy mice, read-out: Plasma) it was 12700 ± 1500 ng/mL. Besides, the Kp at 1 h was found to be 0.2 ± 0.1 in data set [2] (setting [12]), 0.1 ± 0.2 in data set [2] (setting [13]), 2.2 ± 1.4 in data set [2] (setting [14]) and 0.9 ± 0.3 in data set [2] (setting [15]). For the same compound, the Kp at 24 h in data set [2] (4T1 tumor bearing mice) turned out to be 0.1 ± 0.03; in data set [2] (Healthy mice), 0.02 ± 0.01.

`CC(=O)O[C@H]1C(=O)[C@@]2(C)[C@H]([C@H](OC(=O)c3ccccc3)[C@]3(O)C[C@H](OC(=O)[C@H](O)[C@@H](NC(=O)c4ccccc4)c4ccccc4)C(C)=C1C3(C)C)[C@]1(OC(C)=O)CO[C@@H]1C[C@@H]2O` [Paclitaxel, [(1S,2S,3R,4S,7R,9S,10S,12R,15S)-4,12-diacetyloxy-15-[(2R,3S)-3-benzamido-2-hydroxy-3-phenylpropanoyl]oxy-1,9-dihydroxy-10,14,17,17-tetramethyl-11-oxo-6-oxatetracyclo[11.3.1.0^3,10.0^4,7]heptadec-13-en-2-yl] benzoate]: the “decrease in Cmax, GT DcNP compared to CrEL” value in data set [1] is on record as roughly 21%. The peak concentration (Cmax) was 17.7 µg/mL in data set [1] (female, BALB/c, mouse, given in CrEL drug dosage form, read-out: Cmax) and 13.9 µg/mL in data set [1] (given in DcNP dosage form). Further, the AUC(0-t) in data set [1] (setting [4]) was 2490 ng·h/mL; in data set [1] (setting [5]), 9810 ng·h/mL. Besides, the t1/2apparent was determined as 1.81 h in data set [1] (given in CrEL drug dosage form) and 1.97 h in data set [1] (given in DcNP dosage form). Further, the “lung concentration, cancer nodule bearing mice times greater than healthy mice” value in data set [2] (24 hours after GT DcNP) was 7 times. In addition, the concentration at 1 h worked out at 900 ± 500 ng/g in data set [2] (setting [6]); 600 ± 400 ng/g in data set [2] (setting [7]); 1700 ± 500 ng/g in data set [2] (setting [8]); 1000 ± 300 ng/g in data set [2] (setting [9]); 2200 ± 1100 ng/mL in data set [2] (setting [16]); 1400 ± 900 ng/mL in data set [2] (setting [17]). In addition, the concentration at 1 h in data set [2] (setting [18]) is 700 ± 100 ng/mL; in data set [2] (setting [19]), 300 ± 50 ng/mL. Further, the concentration at 24 h in data set [2] (setting [10]) was found to be 400 ± 100 ng/g; in data set [2] (setting [11]), 60 ± 10 ng/g. The Kp at 1 h turned out to be 0.4 ± 0.2 in data set [2] (setting [12]), 0.4 ± 0.01 in data set [2] (setting [13]), 2.5 ± 0.8 in data set [2] (setting [14]) and 3.3 ± 1.2 in data set [2] (setting [15]).

On to `CC1(C)CCC(CN2CCN(c3ccc(C(=O)NS(=O)(=O)c4ccc(NCC5CCOCC5)c([N+](=O)[O-])c4)c(Oc4cnc5[nH]ccc5c4)c3)CC2)=C(c2ccc(Cl)cc2)C1` [Venetoclax, 4-[4-[[2-(4-chlorophenyl)-4,4-dimethylcyclohexen-1-yl]methyl]piperazin-1-yl]-N-[3-nitro-4-(oxan-4-ylmethylamino)phenyl]sulfonyl-2-(1H-pyrrolo[2,3-b]pyridin-5-yloxy)benzamide], for which, in the data set with MOLT-4 cells, the IC50 is 1.96 µg/mL and the half-maximal effective concentration (EC50) came to 2 µg/mL. Further, in data set [3], the “log P” value is 6.92.

With `C=CC(=O)N1CCC([C@@H]2CCNc3c(C(N)=O)c(-c4ccc(Oc5ccccc5)cc4)nn32)CC1` [Zanubrutinib, (7S)-2-(4-phenoxyphenyl)-7-(1-prop-2-enoylpiperidin-4-yl)-4,5,6,7-tetrahydropyrazolo[1,5-a]pyrimidine-3-carboxamide], in the data set on MOLT-4 cells, the IC50 is 4 µg/mL and the EC50 was 4 µg/mL. Also, the “log P” value in data set [3] was 3.5.
